Laboratory results published in patent US20090312373A1, “METHODS FOR THE TREATMENT OF CANCER USING PIPERLONGUMINE AND PIPERLONGUMINE ANALOGS” (The General Hospital Corporation, priority 2008, published 2009).
“Also recorded” adds a separate entry of the source.

What was measured:
[1] = tested on: mouse B16-F10 melanoma cells; assay: B16-F10 mouse melanoma in B6 wild type mice; type: in vivo; settings: 28 ug i.p. every 48 hours for 12 days (total 1.2 mg/kg); compared to DMSO
Protocol: We tested the effectiveness of piperlongumine in wild type mice using mouse B16-F10 melanoma cells. A total 2×10^6 cells were implanted subcutaneously on opposite site flanks in each of 12 B6 wild type mice in each group. When tumor masses grew to ˜5-10 mm in diameter, piperlongumine was administered intraperitoneally (28 ug per each intraperitoneal administration, total 1.2 mg/kg) every 48 hours for 12 days (6 times total).

[2] = tested on: MMTV-PyVT mammary tumor; assay: MMTV-PyVT spontaneous mammary tumor mouse model; type: in vivo
Source text: MMTV-PvVT (FVB/N-Tg) transgenic mice develop multifocal mammary tumor (from hyperplasia to metastatic) with a high incidence of metastasis (Mice were obtained from the NCI repository). This mouse model has been widely used for the correlation studies of human cancer (Guy et al., Moll. Cell. Biol. 12: 954-961, 1992). In addition, this onco-mouse model has been used to evaluate the effectiveness of potential drug therapies. Generally, due to aggressiveness of tumor growth and spread in this mouse-model, only a combination of chemo-drugs is effective in tumor growth inhibition. MMTV-PyVT mice were maintained until mammary tumor size reached to 6 mm, and then piperlongumine (2.4 mg/kg) or vehicle (DMSO) was given daily by i.p. for 13 days. Tumor size was measured every 4 days (See FIGS. 31 and 32).
We compared the anti-tumor activity of piperlongumine (SP2007) with taxol, a well known chemo drug, in the MMTV-PyVT tumor mouse model as described above (8 mice per group). When tumor sizes grew to ˜5-6 mm in diameter, SP2007 (2.4 mg/kg/day) or Taxol (Paclitaxel, 10 mg/kg/day) was administered intraperitoneally (I.P.) daily for two weeks. After two weeks treatment, mice were sacrificed, and mammary tumors excised and the tumor sizes measured. […] The size of the grossly dissected tumors was measured using the formula: mean diameter=(A+B)/2.

[3] = tested on: Twist, N-cadherin and p120 catenin; assay: Western blot of Twist, N-cadherin and p120 catenin in EJ and U2OS cells; type: cell-based, human; settings: 10 μM and 20 μM, 20 hours
Protocol: A scheme for piperlongumine (SP2007)-mediated repression of Twist expression and its downstream targets that are involved in tumor invasion/metastasis is presented in FIG. 39A. […] U2OS and EJ cells were treated with SP2007 at two concentrations (10 μM and 20 μM) as well as with DMSO as a solvent control. After 20 hours, cell lysates were extracted and western blotting was performed against Twist, N-cadherin and p120 catenin (Zymed and Sigma Aldrich). […] Female MMTV-PyVT mice at 8-9 weeks age were chosen for the studies. When tumor sizes grew to ˜5-6 mm in diameter, SP2007 or DMSO was administered intraperitoneally (I.P., total 2.4 mg/kg of SP2007) daily for two weeks. After two weeks treatment, mice were sacrificed and mammary tumors excised and processed for histological examination.

[4] = tested on: EJ bladder carcinoma cells and HCT116 colon carcinoma cells; assay: Cell death in transformed cancer cells; type: cell-based, human; settings: 2.5 μM and 10 μM
[5] = tested on: miRNA-10b; assay: miRNA microarray analysis in U2OS and EJ cells; type: cell-based, human; set-up: dose or concentration left out as unconfirmed; settings: 0, 6 and 24 hrs
Protocol: U2OS cells and EJ cells were treated with piperlongumine ([…]) and total RNA was extracted after 0, 6 and 24 hrs using miRNeasy Mini Kit (Qiagen, Germantown, Md.) according to the manufacturer's instructions. The miRNA microarray analysis was done by LC Sciences (Houston, Tex.). Total RNA (10 μg) was size fractionated (<200 nucleotides) by using a mirVana kit (Ambion, Austin, Tex.) and labeled with Cy3 or Cy5 fluorescent dyes. Dye switching was done to eliminate the dye bias. Pairs of labeled samples were hybridized to dual-channel microarrays. Microarray assays were done on a μParaFlo microfluidics chip with each of the detection probes containing a nucleotide sequence of coding segment complementary to a specific miRNA sequence and a long non-nucleotide molecule spacer that extended the detection probe away from the substrate. miRNA detection signal threshold was defined as twice the maximum background signal. The maximum signal level of background probes was 180. Normalization was done using a cyclic LOWESS (locally weighted regression) method to remove the system-related variations. Data adjustments included data filtering, log2 transformation, and gene centering and normalization (Analysis performed at LCScience). The t-test analysis was conducted between treated and non-treated and U2OS and EJ samples, and miRNA with P values<0.05 were selected for cluster analysis. […]

[6] = tested on: survival proteins (Bc12, Survivin, XAIP); assay: Exon gene array and Western blot of survival proteins in U2OS and EJ cells; type: cell-based, human; settings: variety of concentrations
Protocol: Downstream target genes of piperlongumine (CT-007) were identified using an human exon gene array analysis of U2OS and EJ cancer cell lines (FIG. 12). In addition, the results from the gene array analysis were confirmed by Western blot (FIG. 13; See also Example 12 below).
U2OS cells and EJ cells were exposed to piperlongumine (10 μM) and aliquots of the cells were taken at 6 and 12 hours and lysed to determine the level of Twist expression. […] HCT116 cells (p53-wt cells) were exposed to piperlongumine and aliquots of the cells were taken at 6 and 12 hours and lysed to determine the level of CDIP expression. […] U2OS cells (p53-wt cells) and EJ cells (non-functional p53) were exposed to various concentrations of piperlongumine (piper) and aliquots of the cells were lysed to determine the level of survival protein expression.

[7] = Toxicity limit in mice; type: in vivo, mouse
Protocol: To avoid toxicity, piperlongumine should be used at less than 2.5 mg/kg in mice. The skilled person will know how to formulate the compounds of the invention in accordance with the solubility by selection of appropriate carriers, solubilizers, etc.

[8] = tested on: EJ human bladder cancer cell xenografts; assay: EJ human bladder cancer xenograft in nude mice; type: in vivo, mouse
Protocol: We tested piperlongumine in colon tumor, breast, melanoma or bladder tumor xenograft-bearing mice to evaluate the anti-tumor effect of piperlongumine. We examined EJ human bladder cancer cell xenografts (non-functional p53) to evaluate anti-tumor effects. A total of 2×10^6 EJ cells or SW480 cells were implanted subcutaneously on opposite site flanks in each of six nude/nude mice in each group. When tumor masses grew to ˜5-10 mm in diameter, piperlongumine was administered intraperitoneally (28 ug per each intraperitoneal administration, total 1.2 mg/kg) every 48 hours for 12 days (6 times total).

[9] = 2.4 mg/kg daily i.p. for 13 days

For `COc1cc(/C=C/C(=O)N2CCC=CC2=O)cc(OC)c1OC` [piperlongumine, N-(3,4,5,-trimethoxycinnamoyl)-Δ^3-piperidine-2-one], the anti-tumor effect [1] was “significant anti-tumor effects”, the “multiple tumor growth in spontaneous tumor model” value [2, 9] was “inhibits multiple tumor growth” and the “tumor growth in spontaneous mouse model of breast cancer” value [2, 9] was “inhibits tumor growth”. The “anti-tumor effect (mammary tumor size)” value ([2]; 2.4 mg/kg/day i.p. daily for two weeks, compared to DMSO) was “Significant anti-tumor effects”, the “health of mice during treatment” value ([2]; SP2007 2.4 mg/kg/day i.p. for two weeks) was “remained healthy throughout the treatment time” and the secondary tumors ([2]; SP2007 2.4 mg/kg/day or Taxol 10 mg/kg/day i.p. for two weeks) was “No secondary tumors were observed”. The “expression of Twist, N-cadherin and p120 catenin” value [3] was “inhibits expression”, the “cell death in transformed cancer cells” value [4] was “induced cell death” and the miRNA-10b [5] was “changes the induction of miRNA-10b”. For the same molecule, the “levels of expression of survival proteins” value [6] was “significantly repressed; also recorded: inhibits the expression of survival proteins”, the “dose to avoid toxicity” value [7] was “less than 2.5 mg/kg” and the anti-tumor effect ([8]; 28 ug i.p. every 48 hours for 12 days (total 1.2 mg/kg), compared to DMSO) was “significant anti-tumor effects”. The “blood vessel formation (angiogenesis) in the tumors” value ([8]; tumor mice) was “strongly inhibited” and the “expression of apoptosis genes (p21, PUMA, Caspase 3) in tumor-mice” value ([8]; tumor mice) was “enhanced”.
